The results in this text go back to ChEMBL document CHEMBL1649146, “Contribution of the autolysin AtlA to the bactericidal activity of amoxicillin against Enterococcus faecalis JH2-2” (2009).

In brackets after ≈: the same amount, converted by molar mass. Activity calls are given as the source filed them. No cut-off for these calls is given here.

Assay [1] concerns Enterococcus faecalis. The assay can be described thus: Antibacterial activity against atlA-deficient Enterococcus faecalis JH2-2 assessed as decrease in decrease in bacterial count at 2 ug/ml after 6 hrs by macrodilution method. Format: functional.
Assay [2] has as its system Enterococcus faecalis. The assay can be described thus: Antibacterial activity against Enterococcus faecalis JH2-2 assessed as decrease in decrease in bacterial count at 2 ug/ml after 24 hrs by macrodilution method. Type of assay: functional.
The subject of assay [3] is Enterococcus faecalis. Description: Antibacterial activity against Enterococcus faecalis JH2-2 assessed as bacterial killing at 2 ug/ml by macrodilution method. Type of assay: functional, organism-based.
For assay [4], the system named is Enterococcus faecalis. Description: Antibacterial activity against atlA-deficient Enterococcus faecalis JH2-2 assessed as decrease in decrease in bacterial count at 2 ug/ml after 3 hrs by macrodilution method. Format: functional.
The test system of assay [5] is Enterococcus faecalis. The assay can be described thus: Antibacterial activity against atlA-deficient Enterococcus faecalis JH2-2 assessed as bacterial killing at 2 ug/ml by macrodilution method. Type of assay: functional, organism-based.
In assay [6] the test system is Enterococcus faecalis. The assay can be described thus: Antibacterial activity against Enterococcus faecalis JH2-2 assessed as decrease in decrease in bacterial count at 2 ug/ml after 6 hrs by macrodilution method. Type of assay: functional.
The test system of assay [7] is Enterococcus faecalis. Description: Antibacterial activity against Enterococcus faecalis JH2-2 infected in New Zealand White rabbit assessed as bacterial count per gram vegetation at 50 mg/kg, im TID for 3 days administered 48 hrs post bacterial challenge (reference value: 9.40+/-0.62 log10 CFU/g). Type of assay: functional. To be noted: route intramuscular.
Assay [8] relates to Enterococcus faecalis. Description: Antibacterial activity against atlA-deficient Enterococcus faecalis JH2-2 assessed as decrease in decrease in bacterial count at 2 ug/ml after 24 hrs by macrodilution method. Type of assay: functional.
Assay [9] relates to Enterococcus faecalis. The assay can be described thus: Ratio of MBC to MIC in Enterococcus faecalis JH2-2. Format: functional.
The subject of assay [10] is Enterococcus faecalis. The assay can be described thus: Antibacterial activity against atlA-deficient Enterococcus faecalis JH2-2 assessed as decrease in bacterial count at 2 ug/ml by macrodilution method. More on the design: scale not given: the % may be the effect or the level left. Type of assay: functional.
Assay [11] concerns Enterococcus faecalis. Description: Antibacterial activity against Enterococcus faecalis JH2-2 by macrodilution method. Type of assay: functional.
The subject of assay [12] is Enterococcus faecalis. The assay can be described thus: Ratio of MBC to MIC in atlA-deficient Enterococcus faecalis JH2-2. Format: functional.
The subject of assay [13] is Enterococcus faecalis. Description: Antibacterial activity against atlA-deficient Enterococcus faecalis JH2-2 by macrodilution method. Type of assay: functional.
Assay [14] relates to Enterococcus faecalis. The assay can be described thus: Antibacterial activity against atlA-deficient Enterococcus faecalis JH2-2 infected in New Zealand White rabbit assessed as bacterial count per gram vegetation at 50 mg/kg, im TID for 3 days administered 48 hrs post bacterial challenge (reference value: 8.34+/-1.66 log10 CFU/g). Type of assay: functional. The conditions noted are these: route intramuscular.

Assay [15] has as its system Enterococcus faecalis. Description: Antibacterial activity against Enterococcus faecalis JH2-2 assessed as decrease in decrease in bacterial count at 2 ug/ml after 3 hrs by macrodilution method. Format: functional.

As for `CC1(C)S[C@@H]2[C@H](NC(=O)[C@H](N)c3ccc(O)cc3)C(=O)N2[C@H]1C(=O)O` [AMOXICILLIN], the log10CFU/ml in assay [1] is 3.93; in assay [2], 7.82; in assay [4], 1.5; in assay [6], 5.59; in [8] it was 6.46; in [15] it was 2.57. Further, the outcome in [3] and in [5] was Active. Further, the log10CFU/g is listed as 7.69 in assay [7] and 8.55 in [14]. Besides, the Ratio in [9] is recorded as 4; in [12] it was “>=32”. The Activity result in [10] is “>=99.9%”. Moreover, the MBC in [11] is 2 µg/mL (≈ 5.47 µM); in [13], over 1020 µg/mL. Also, the figures for the MIC in [11] and in assay [13] were 0.5 µg/mL (≈ 1.37 µM) and 1 µg/mL (≈ 2.74 µM), respectively.

For orientation: MBC means the lowest tested concentration that kills the bacteria rather than only halting them. Usually MIC stands for the lowest concentration that inhibits growth of the organism.
